ChEMBL document CHEMBL2331210, “New 2-benzylsulfanyl-nicotinic acid based 1,3,4-oxadiazoles: their synthesis and biological evaluation” (2013)
Converted amounts (≈) assume the structure as drawn.

What was measured:
MCF7 = assay: Antitumor activity against human MCF7 cells assessed as cell growth at 0.1 uM; assay type: functional; conditions: read-out: Activity
MDA-MB-435 = assay: Antitumor activity against human MDA-MB-435 cells assessed as cell growth at 0.1 uM; assay type: functional; conditions: read-out: Activity
NCI/ADR-RES = assay: Antitumor activity against human NCI/ADR-RES cells assessed as cell growth at 0.1 uM; assay type: functional; conditions: read-out: Activity
Aspergillus niger = assay: Antimicrobial activity against Aspergillus niger MTCC 282 assessed as growth inhibition measured after overnight incubation by broth dilution method; assay type: functional
[1] = Antitumor activity against human EKVX cells assessed as cell growth at 0.1 uM; assay type: functional; conditions: read-out: Activity
BT-549 = assay: Antitumor activity against human BT549 cells assessed as cell growth at 0.1 uM; assay type: functional; conditions: read-out: Activity
HCT-15 = assay: Antitumor activity against human HCT15 cells assessed as cell growth at 0.1 uM; assay type: functional; conditions: read-out: Activity
SK-OV-3 = assay: Antitumor activity against human SKOV3 cells assessed as cell growth at 0.1 uM; assay type: functional; conditions: read-out: Activity
SF-539 = assay: Antitumor activity against human SF539 cells assessed as cell growth at 0.1 uM; assay type: functional; conditions: read-out: Activity
LOX IMVI = assay: Antitumor activity against human LOXIMVI cells assessed as cell growth at 0.1 uM; assay type: functional; conditions: read-out: Activity
UACC-257 = assay: Antitumor activity against human UACC257 cells assessed as cell growth at 0.1 uM; assay type: functional; conditions: read-out: Activity
RXF 393 = assay: Antitumor activity against human RXF393 cells assessed as cell growth at 0.1 uM; assay type: functional; conditions: read-out: Activity
[2] = system: Mycobacterium tuberculosis; assay: Antitubercular activity against Mycobacterium tuberculosis H37Rv assessed as growth inhibition after 12 to 28 days by L.J. agar MIC method; assay type: functional
CAKI-1 = assay: Antitumor activity against human CAKI-1 cells assessed as cell growth at 0.1 uM; assay type: functional; conditions: read-out: Activity
HT-29 = assay: Antitumor activity against human HT-29 cells assessed as cell growth at 0.1 uM; assay type: functional; conditions: read-out: Activity
Staphylococcus aureus = assay: Antimicrobial activity against Staphylococcus aureus MTCC 96 assessed as growth inhibition measured after overnight incubation by broth dilution method; assay type: functional
OVCAR-8 = assay: Antitumor activity against human OVCAR8 cells assessed as cell growth at 0.1 uM; assay type: functional; conditions: read-out: Activity
Escherichia coli = assay: Antimicrobial activity against Escherichia coli MTCC 443 assessed as growth inhibition measured after overnight incubation by broth dilution method; assay type: functional
SNB-75 = assay: Antitumor activity against human SNB75 cells assessed as cell growth at 0.1 uM; assay type: functional; conditions: read-out: Activity
UO-31 = assay: Antitumor activity against human UO31 cells assessed as cell growth at 0.1 uM; assay type: functional; conditions: read-out: Activity
TK-10 = assay: Antitumor activity against human TK10 cells assessed as cell growth at 0.1 uM; assay type: functional; conditions: read-out: Activity
DU-145 = assay: Antitumor activity against human DU145 cells assessed as cell growth at 0.1 uM; assay type: functional; conditions: read-out: Activity
SN12C = assay: Antitumor activity against human SN12C cells assessed as cell growth at 0.1 uM; assay type: functional; conditions: read-out: Activity
SF-268 = assay: Antitumor activity against human SF268 cells assessed as cell growth at 0.1 uM; assay type: functional; conditions: read-out: Activity
U-251 = assay: Antitumor activity against human U251 cells assessed as cell growth at 0.1 uM; assay type: functional; conditions: read-out: Activity
MOLT-4 = assay: Antitumor activity against human MOLT4 cells assessed as cell growth at 0.1 uM; assay type: functional; conditions: read-out: Activity
K562 = assay: Antitumor activity against human K562 cells assessed as cell growth at 0.1 uM; assay type: functional; conditions: read-out: Activity
CCRF-CEM = assay: Antitumor activity against human CCRF-CEM cells assessed as cell growth at 0.1 uM; assay type: functional; conditions: read-out: Activity
MDA-MB-231 = assay: Antitumor activity against human MDA-MB-231/ATCC cells assessed as cell growth at 0.1 uM; assay type: functional; conditions: read-out: Activity
UACC-62 = assay: Antitumor activity against human UACC62 cells assessed as cell growth at 0.1 uM; assay type: functional; conditions: read-out: Activity
Malme-3M = assay: Antitumor activity against human MALME-3M cells assessed as cell growth at 0.1 uM; assay type: functional; conditions: read-out: Activity
HCT-116 = assay: Antitumor activity against human HCT116 cells assessed as cell growth at 0.1 uM; assay type: functional; conditions: read-out: Activity
OVCAR-3 = assay: Antitumor activity against human OVCAR3 cells assessed as cell growth at 0.1 uM; assay type: functional; conditions: read-out: Activity
SK-MEL-5 = assay: Antitumor activity against human SK-MEL-5 cells assessed as cell growth at 0.1 uM; assay type: functional; conditions: read-out: Activity
MDA-MB-468 = assay: Antitumor activity against human MDA-MB-468 cells assessed as cell growth at 0.1 uM; assay type: functional; conditions: read-out: Activity
SNB-19 = assay: Antitumor activity against human SNB19 cells assessed as cell growth at 0.1 uM; assay type: functional; conditions: read-out: Activity
SK-MEL-28 = assay: Antitumor activity against human SK-MEL-28 cells assessed as cell growth at 0.1 uM; assay type: functional; conditions: read-out: Activity
[3] = Antitumor activity against human Hs 578T cells assessed as cell growth at 0.1 uM; assay type: functional; conditions: read-out: Activity
Candida albicans = assay: Antimicrobial activity against Candida albicans MTCC 227 assessed as growth inhibition measured after overnight incubation by broth dilution method; assay type: functional
A498 = assay: Antitumor activity against human A498 cells assessed as cell growth at 0.1 uM; assay type: functional; conditions: read-out: Activity
NCI-H23 = assay: Antitumor activity against human NCI-H23 cells assessed as cell growth at 0.1 uM; assay type: functional; conditions: read-out: Activity
A549 = assay: Antitumor activity against human A549/ATCC cells assessed as cell growth at 0.1 uM; assay type: functional; conditions: read-out: Activity
Streptococcus pyogenes = assay: Antimicrobial activity against Streptococcus pyogenes MTCC 442 assessed as growth inhibition measured after overnight incubation by broth dilution method; assay type: functional
HOP-62 = assay: Antitumor activity against human HOP62 cells assessed as cell growth at 0.1 uM; assay type: functional; conditions: read-out: Activity
NCI-H460 = assay: Antitumor activity against human NCI-H460 cells assessed as cell growth at 0.1 uM; assay type: functional; conditions: read-out: Activity
PC-3 = assay: Antitumor activity against human PC3 cells assessed as cell growth at 0.1 uM; assay type: functional; conditions: read-out: Activity
Pseudomonas aeruginosa = assay: Antimicrobial activity against Pseudomonas aeruginosa MTCC 2488 assessed as growth inhibition measured after overnight incubation by broth dilution method; assay type: functional
Aspergillus clavatus = assay: Antimicrobial activity against Aspergillus clavatus MTCC 1323 assessed as growth inhibition measured after overnight incubation by broth dilution method; assay type: functional
T47D = assay: Antitumor activity against human T47D cells assessed as cell growth at 0.1 uM; assay type: functional; conditions: read-out: Activity
SK-MEL-2 = assay: cells; conditions: Homo sapiens, SK-MEL-2, read-out: Activity
Description: Antitumor activity against human SK-MEL-2 cells assessed as cell growth at 0.1 uM

[4] = Antitumor activity against human HCC2998 cells assessed as cell growth at 0.1 uM; assay type: functional; conditions: HCC 2998, read-out: Activity
NCI-H522 = assay: Antitumor activity against human NCI-H522 cells assessed as cell growth at 0.1 uM; assay type: functional; conditions: read-out: Activity
SF-295 = assay: Antitumor activity against human SF295 cells assessed as cell growth at 0.1 uM; assay type: functional; conditions: read-out: Activity
HOP-92 = assay: Antitumor activity against human HOP92 cells assessed as cell growth at 0.1 uM; assay type: functional; conditions: read-out: Activity
NCI-H226 = assay: Antitumor activity against human NCI-H226 cells assessed as cell growth at 0.1 uM; assay type: functional; conditions: read-out: Activity
M14 = assay: Antitumor activity against human M14 cells assessed as cell growth at 0.1 uM; assay type: functional; conditions: read-out: Activity
OVCAR-4 = assay: Antitumor activity against human OVCAR4 cells assessed as cell growth at 0.1 uM; assay type: functional; conditions: read-out: Activity
RPMI-8226 = assay: Antitumor activity against human RPMI8226 cells assessed as cell growth at 0.1 uM; assay type: functional; conditions: read-out: Activity
SR = assay: Antitumor activity against human SR cells assessed as cell growth at 0.1 uM; assay type: functional; conditions: read-out: Activity
HL-60 = assay: Antitumor activity against human HL60(TB) cells assessed as cell growth at 0.1 uM; assay type: functional; conditions: read-out: Activity
ACHN = assay: Antitumor activity against human ACHN cells assessed as cell growth at 0.1 uM; assay type: functional; conditions: read-out: Activity
SW-620 = assay: Antitumor activity against human SW620 cells assessed as cell growth at 0.1 uM; assay type: functional; conditions: read-out: Activity
OVCAR-5 = assay: Antitumor activity against human OVCAR5 cells assessed as cell growth at 0.1 uM; assay type: functional; conditions: read-out: Activity
IGROV-1 = assay: Antitumor activity against human IGROV1 cells assessed as cell growth at 0.1 uM; assay type: functional; conditions: read-out: Activity

Cc1ccc2sc(-c3ccc(NC(=O)CSc4nnc(-c5cccnc5SCc5ccccc5)o4)cc3)nc2c1
growth at 0.1 µM (MCF7): 81.2%
growth at 0.1 µM (MDA-MB-435): 107%
growth at 0.1 µM (NCI/ADR-RES): 99.5%
MIC (Aspergillus niger): 1000 µg/mL (≈ 1720 µM)
growth at 0.1 µM [1]: 89.9%
growth at 0.1 µM (BT-549): 91.6%
growth at 0.1 µM (HCT-15): 111%
growth at 0.1 µM (SK-OV-3): 105%
growth at 0.1 µM (SF-539): 92.9%
growth at 0.1 µM (LOX IMVI): 93.6%
growth at 0.1 µM (UACC-257): 113%
growth at 0.1 µM (RXF 393): 114%
growth inhibition (GI) [2]: 99%
MIC ([2]; Mycobacterium tuberculosis, H37Rv): 62.5 µg/mL (≈ 107 µM)
growth at 0.1 µM (CAKI-1): 87.8%
growth at 0.1 µM (HT-29): 100%
MIC (Staphylococcus aureus): 100 µg/mL (≈ 172 µM)
growth at 0.1 µM (OVCAR-8): 94.3%
MIC (Escherichia coli): 100 µg/mL (≈ 172 µM)
growth at 0.1 µM (SNB-75): 95.6%
growth at 0.1 µM (UO-31): 59.3%
growth at 0.1 µM (TK-10): 118%
growth at 0.1 µM (DU-145): 87.5%
growth at 0.1 µM (SN12C): 102%
growth at 0.1 µM (SF-268): 91.6%
growth at 0.1 µM (U-251): 106%
growth at 0.1 µM (MOLT-4): 92.2%
growth at 0.1 µM (K562): 101%
growth at 0.1 µM (CCRF-CEM): 93.1%
growth at 0.1 µM (MDA-MB-231): 71.4%
growth at 0.1 µM (UACC-62): 104%
growth at 0.1 µM (Malme-3M): 99.3%
growth at 0.1 µM (HCT-116): 95.4%
growth at 0.1 µM (OVCAR-3): 100%
growth at 0.1 µM (SK-MEL-5): 89.9%
growth at 0.1 µM (MDA-MB-468): 92.2%
growth at 0.1 µM (SNB-19): 104%
growth at 0.1 µM (SK-MEL-28): 114%
growth at 0.1 µM [3]: 92.3%
MIC (Candida albicans): 250 µg/mL (≈ 430 µM)
growth at 0.1 µM (A498): 105%
growth at 0.1 µM (NCI-H23): 96.6%
growth at 0.1 µM (A549): 104%
MIC (Streptococcus pyogenes): 25 µg/mL (≈ 43 µM)
growth at 0.1 µM (HOP-62): 96.8%
growth at 0.1 µM (NCI-H460): 101%
growth at 0.1 µM (PC-3): 91.8%
MIC (Pseudomonas aeruginosa): 62.5 µg/mL (≈ 107 µM)
MIC (Aspergillus clavatus): 500 µg/mL (≈ 859 µM)
growth at 0.1 µM (T47D): 87.8%
growth at 0.1 µM (SK-MEL-2): 89.8%
growth at 0.1 µM [4]: 106%
growth at 0.1 µM (NCI-H522): 87.9%
growth at 0.1 µM (SF-295): 107%
growth at 0.1 µM (HOP-92): 93.4%
growth at 0.1 µM (NCI-H226): 80.8%
growth at 0.1 µM (M14): 97.4%
growth at 0.1 µM (OVCAR-4): 98.8%
growth at 0.1 µM (RPMI-8226): 92.2%
growth at 0.1 µM (SR): 82.6%
growth at 0.1 µM (HL-60): 97.3%
growth at 0.1 µM (ACHN): 90.8%
growth at 0.1 µM (SW-620): 104%
growth at 0.1 µM (OVCAR-5): 107%
growth at 0.1 µM (IGROV-1): 99.7%
